This note sets out measurements from patent US20260308149A1, “NOVEL CARBOXAMIDE DERIVATIVES” (ANGELINI PHARMA S.P.A., priority 2023, published 2026).

The assay deals with T1, human Kv7.2 (Homo sapiens, UniProt O43526).
T1 construct: expressed in transfected cells
T1 sequence (O43526 whole entry): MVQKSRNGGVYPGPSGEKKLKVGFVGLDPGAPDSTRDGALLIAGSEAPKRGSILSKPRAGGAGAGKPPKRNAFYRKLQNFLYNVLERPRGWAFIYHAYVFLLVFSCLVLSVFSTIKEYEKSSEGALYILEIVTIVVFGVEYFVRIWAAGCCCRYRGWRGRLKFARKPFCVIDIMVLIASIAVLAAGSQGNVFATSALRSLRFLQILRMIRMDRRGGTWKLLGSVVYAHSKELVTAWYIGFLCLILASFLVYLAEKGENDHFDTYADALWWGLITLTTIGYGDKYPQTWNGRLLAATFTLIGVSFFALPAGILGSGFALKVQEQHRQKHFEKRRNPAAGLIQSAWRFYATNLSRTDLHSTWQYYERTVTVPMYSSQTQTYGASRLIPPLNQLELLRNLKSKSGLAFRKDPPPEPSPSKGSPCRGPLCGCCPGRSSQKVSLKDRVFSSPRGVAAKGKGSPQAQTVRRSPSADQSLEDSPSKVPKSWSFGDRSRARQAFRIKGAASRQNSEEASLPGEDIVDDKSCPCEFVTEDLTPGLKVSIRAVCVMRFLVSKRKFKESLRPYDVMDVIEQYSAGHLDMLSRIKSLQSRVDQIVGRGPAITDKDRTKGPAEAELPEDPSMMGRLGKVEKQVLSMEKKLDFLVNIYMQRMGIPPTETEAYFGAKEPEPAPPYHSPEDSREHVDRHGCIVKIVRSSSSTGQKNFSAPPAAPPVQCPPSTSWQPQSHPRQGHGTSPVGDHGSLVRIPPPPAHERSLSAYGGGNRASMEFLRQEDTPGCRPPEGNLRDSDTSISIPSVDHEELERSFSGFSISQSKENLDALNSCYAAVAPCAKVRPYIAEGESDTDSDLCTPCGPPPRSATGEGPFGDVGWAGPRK
Description: activation (potentiation) of Kv7.2 current, SyncroPatch 384 electrophysiology in CHO cells stably expressing human Kv7.2. As to conditions: human Kv7.2 in CHO cells; in presence of 5.6 μM zinc pyrithione; % activation relative to 30 μM ML-213. It is filed as cell-based. On the procedure: The potency of Kv7 potentiators was determined using the SyncroPatch 384 (Nanion) high throughput electrophysiology platform.
CHO cells stably expressing either human Kv7.2, Kv7.4 or Kv7.5/7.3 under a constitutive CMV promoter were used for these studies. Cells were maintained in F12 Hams+1 mM L-glutamine (Hyclone) supplemented with 10% FBS (Sigma), 0.3×NEAA (Non-essential Gamino-acids) and 400 ug/ml G418 at 37° C. in 5% CO2. Cells were cultured in T-225 flasks (Nunc) for 2-3 days to reach 85-95% confluence prior to electrophysiological recording.
Earle's balanced salt solution (in mM): 135 NaCl, 5.4 KCl, 5 Glucose, 2 CaCl2), 1 MgCl2, 5 HEPES, pH 7.4. Seal enhancer solution (in mM): 90 NaCl, 3 KCl, 35 CaCl2), 10 MgCl2, 10 HEPES, pH 7.4. Extracellular recording solution (in mM): 71 NaCl, 70 NMDG, 13 KCl. 5 Glucose, 2 CaCl2, 1 MgCl2, 10 HEPES, pH 7.4. Intracellular recording solution (in mM): 130 KF, 20 KCl, 4 EGTA, 10 HEPES, 2 EDTA, 0.01 Escin, pH 7.2.
Cells were harvested for electrophysiological recording upon reaching appropriate confluence. Cells were first washed in DPBS (Hyclone, Cat #SH30028.03) and then 2 ml of Accutase (MP Biomedicals #1000449) was added at 28° C. until ~90% of cells were suspended. F12 HAM's media+1 mM L-glutamine (Hyclone, SH30026.02) was then added to the flask to dilute the accutase. Cells were then triturated until a single cell suspension was achieved, a cell count was performed, and cells were centrifuged for 2 min. at 1,000 rpm. Media was then aspirated, and cells were resuspended in Earle's balanced salt solution to a concentration of 0.75×10^6 cells/ml and allowed to recover for 25 min at 10° C.
At the beginning of each assay, 20 μl of cell suspension was dispensed into each well of a multi-hole 384-well SyncroPatch chip by the onboard pipettor. Cell sealing was initiated, and seal enhancer solution was added to facilitate seal formation. Upon completion of sealing, cells were washed 3 times with extracellular recording solution and the assay voltage protocol was started. Human Kv7.2, Kv7.4 or Kv7.5/7.3 channels were evaluated using a voltage protocol in which cells were voltage-clamped at a holding potential of −60 mV. Potassium currents were continuously activated with a series of three voltage steps to −30 mV for 3 seconds, 40 mV for 1 second and −90 mV for 4 seconds with 12 seconds between successive voltage sweeps. Potassium currents were measured from the −90 mV repolarizing step. Baseline current was assessed for 3.5 minutes prior to the addition of 5.6 μM zinc pyrithione (1 μM for Kv7.4). Kv7.2, Kv7.4 or Kv7.5/7.3 current in the presence of zinc pyrithione was acquired over five minutes to allow channels to reach steady state activity prior to addition of test agents. Channel activity was monitored for three minutes preceding the addition of 30 μM ML-213 (3 minutes) to achieve maximum activation. 150 mM TEA with 10 μM XE-991 was applied for 2 minutes to measure the leak current during maximum inhibition of Kv7.2, Kv7.4 or Kv7.5/7.3 channels.
Data were collected on the SyncroPatch platform using PatchControl software (Nanion) and processed and analyzed using DataControl Software (Nanion). Percent activation was calculated from potassium current as follows: The average current for the 5 sweeps in the presence of zinc pyrithione immediately preceding test agent addition was taken as the ‘control’ data. Likewise, the average potassium current in the presence of test agents 5 sweeps immediately preceding addition of 30 μM ML-213 was determined for ‘drug’ data. The average potassium current 5 sweeps immediately prior to addition of 150 mM TEA+10 μM XE-991 was determined for ‘max activation’ data while average currents from 5 sweeps immediately following addition of TEA was determined for ‘max inhibition’ data. Percent activation for each of the 384-wells of a sealchip was calculated as ((‘drug’−‘max inhibition’)/(‘max activation’−‘max inhibition’))*100 with Pipeline Pilot (Accelrys). […]
On the technique in general: Patch clamp records ionic current or voltage across a cell membrane.
The term EC50 denotes the concentration needed to bring the measured effect to its halfway point. For the molecule `O=C(NC[C@]1(c2cccc(Cl)c2)OCC1(F)F)[C@H]1C[C@@H]1c1ccccc1` (stereo in doubt) [Example 42, (1S,2S)-N-[[(2S)-2-(3-chlorophenyl)-3,3-difluoro-oxetan-2-yl]methyl]-2-phenyl-cyclopropanecarboxamide], the EC50 was 630 nM.

Turning to `N#Cc1cccc([C@@]2(CNC(=O)CC3CCCCCC3)CCO2)c1` [Example 94, N-[[(2R)-2-(3-cyanophenyl)oxetan-2-yl]methyl]-2-cycloheptyl-acetamide], the EC50 was found to be 5620 nM.

For `O=C(NCC1(c2cccc(OC(F)F)n2)CCO1)[C@H]1C[C@@H]1c1ccccc1` (stereo partly drawn) [Example 99, (1S,2S)—N-[[2-[6-(difluoromethoxy)-2-pyridyl]oxetan-2-yl]methyl]-2-phenyl-cyclopropanecarboxamide], the EC50 is 230 nM.

For `O=C(NCC1(c2cccc(Cl)n2)CCO1)[C@H]1C[C@@H]1c1ccccc1` (stereo partly drawn) [Example 76, (1S,2S)—N-[[2-(6-chloro-2-pyridyl)oxetan-2-yl]methyl]-2-phenyl-cyclopropanecarboxamide], the EC50 was 1740 nM.

On to `CO[C@@](C)(CNC(=O)[C@@H]1C[C@H]1C1CCCC1)c1cccc(Cl)c1` (mixture of isomers) [Example 80, (1RS,2SR)—N-[(2R)-2-(3-chlorophenyl)-2-methoxy-propyl]-2-cyclopentyl-cyclopropanecarboxamide], for which the EC50 is 220 nM.

In the case of `N#Cc1cccc([C@]2(CNC(=O)C3CC3n3cccc3)CCO2)c1` (stereo partly drawn) [Example 135, N-[[(2S)-2-(3-cyanophenyl)oxetan-2-yl]methyl]-2-pyrrol-1-yl-cyclopropanecarboxamide], the EC50 was determined as 1140 nM.

Regarding `O=C(NCC1(c2cccc(Cl)c2)CCO1)Nc1cccc(Cl)c1` (stereo not shown) [Example 58], the EC50 came out at 810 nM.

In the case of `O=C(CC1CCCCC1)NCC1(c2ccnc(OC(F)F)c2)CCO1` (stereo not shown) [Example 117, 2-cyclohexyl-N-[[2-[2-(difluoromethoxy)-4-pyridyl]oxetan-2-yl]methyl]acetamide], the EC50 came to 4330 nM.

As to `O=C(NCC(OCC(F)(F)F)c1cccc(Cl)c1)NC1C[C@H]2CC[C@@H]1C2` (mixture of isomers) [Example 45, 1-[2-(3-chlorophenyl)-2-(2,2,2-trifluoroethoxy)ethyl]-3-[rac-(1R,4S)-norbornan-2-yl]urea], the EC50 stood at 790 nM.

Turning to `CO[C@@](C)(CNC(=O)[C@@H]1C[C@H]1C1CC1)c1cccc(Cl)c1` (mixture of isomers) [Example 79, (1RS,2SR)—N-[(2R)-2-(3-chlorophenyl)-2-methoxy-propyl]-2-cyclopropyl-cyclopropanecarboxamide], the EC50 was 1120 nM.

On to `CO[C@@](C)(CNC(=O)[C@H]1C[C@@H]1c1ccccc1)c1cccc(Cl)c1` [Example 2, (1S,2S)-N-[(2R)-2-(3-chlorophenyl)-2-methoxy-propyl]-2-phenyl-cyclopropanecarboxamide], for which the EC50 was determined as 60 nM.

As to `N#Cc1cccc([C@]2(CNC(=O)[C@H]3C[C@@H]3c3ccc(F)cc3)CCO2)c1` (mixture of isomers) [Example 107, (1SR,2SR)—N-[[(2S)-2-(3-cyanophenyl)oxetan-2-yl]methyl]-2-(4-fluorophenyl)cyclopropanecarboxamide], the EC50 was determined as 130 nM.

With `O=C(NC/C(=C/CO)c1cccc(Cl)c1)NCC1CCCC1` [Example 78, 1-[(E)-2-(3-chlorophenyl)-4-hydroxy-but-2-enyl]-3-(cyclopentylmethyl)urea], the EC50 came out at 6790 nM.

For the molecule `N#Cc1cccc([C@]2(CNC(=O)C(F)CC3CCCC3)CCO2)c1` (stereo partly drawn) [Example 103, N-[[(2S)-2-(3-cyanophenyl)oxetan-2-yl]methyl]-3-cyclopentyl-2-fluoro-propanamide], the EC50 was determined as 6140 nM.

`N#Cc1cccc(C2(CNC(=O)[C@H]3C[C@@H]3c3ccccc3)COC2)c1` [Example 85, (1S,2S)—N-[[3-(3-cyanophenyl)oxetan-3-yl]methyl]-2-phenyl-cyclopropanecarboxamide]: the EC50 was found to be 1140 nM.

As for `O=C(CC1CCCCC1)NCC1(c2cccc(OC(F)F)n2)CCO1` (stereo not shown) [Example 119, 2-cyclohexyl-N-[[2-[6-(difluoromethoxy)-2-pyridyl]oxetan-2-yl]methyl]acetamide], the EC50 stood at 660 nM.

With `CO[C@@](C)(CNC(=O)[C@H]1C[C@H]1C1CCCC1)c1cccc(Cl)c1` (mixture of isomers) [Example 81, (1SR,2SR)—N-[(2R)-2-(3-chlorophenyl)-2-methoxy-propyl]-2-cyclopentyl-cyclopropanecarboxamide], the EC50 stood at 500 nM.

For the molecule `N#Cc1cccc(C2(CNC(=O)CC3CCCCC3)COC2)c1` [Example 89, N-[[3-(3-cyanophenyl)oxetan-3-yl]methyl]-2-cyclohexyl-acetamide], the EC50 is 2790 nM.

In the case of `N#Cc1cccc(C2(CNC(=O)[C@H]3C[C@@H]3c3ccccc3)OCC2(F)F)c1` (stereo partly drawn) [Example 87, (1S,2S)—N-[[2-(3-cyanophenyl)-3,3-difluoro-oxetan-2-yl]methyl]-2-phenyl-cyclopropanecarboxamide], the EC50 amounted to 60 nM.

On to `COC(C)(CNC(=O)NC1CC=CC1)c1cccc(Cl)c1` (stereo not shown) [Example 30, 1-[2-(3-chlorophenyl)-2-methoxy-propyl]-3-cyclopent-3-en-1-yl-urea], for which the EC50 is 3270 nM.

Regarding `N#Cc1cccc([C@]2(CNC(=O)C3CC4(C3)CC43CCC3)CCO2)c1` (stereo partly drawn) [Example 105, N-[[(2S)-2-(3-cyanophenyl)oxetan-2-yl]methyl]dispiro[3.0.3^5.1^4]nonane-7-carboxamide], the EC50 was 910 nM.

Turning to `COC(CNC(=O)Nc1cccc(C)c1)c1cccc(Cl)c1` (stereo not shown) [Example 22, 1-[2-(3-chlorophenyl)-2-methoxy-ethyl]-3-(m-tolyl)urea], the EC50 was 1990 nM.

In the case of `COC(C)(CNC(=O)/C=C/c1ccccc1F)c1cccc(Cl)c1` (stereo not shown) [Example 47, (E)-N-[2-(3-chlorophenyl)-2-methoxy-propyl]-3-(2-fluorophenyl)prop-2-enamide], the EC50 was found to be 7510 nM.

`N#Cc1cccc([C@]2(CNC(=O)C3CCC4(CCC4)C3)CCO2)c1` (stereo partly drawn) [Example 102, N-[[(2S)-2-(3-cyanophenyl)oxetan-2-yl]methyl]spiro[3.4]octane-7-carboxamide]: the EC50 turned out to be 3010 nM.

Regarding `O=C(NCC1(c2ccnc(OC(F)F)c2)CCO1)[C@H]1C[C@@H]1C(F)(F)F` (stereo partly drawn) [Example 129, (1S,2S)—N-[[2-[2-(difluoromethoxy)-4-pyridyl]oxetan-2-yl]methyl]-2-(trifluoromethyl)cyclopropanecarboxamide], the EC50 turned out to be 4240 nM.

In the case of `N#Cc1cccc([C@]2(CNC(=O)CC34CCC(CC3)C4)CCO2)c1` [Example 109, N-[[(2S)-2-(3-cyanophenyl)oxetan-2-yl]methyl]-2-norbornan-1-yl-acetamide], the EC50 was 710 nM.

For the molecule `O=C(NCC1(c2cccc(Cl)c2)CC1)NC1CCCC1` [Example 7, 1-[[1-(3-chlorophenyl)cyclopropyl]meth-yl]-3-cyclopentyl-urea], the EC50 was 2720 nM.

Take `N#Cc1cccc(C2(CNC(=O)[C@H]3C[C@@H]3c3ccccc3)CCC(=O)O2)c1` (stereo partly drawn) [Example 88, (1S,2S)—N-[[2-(3-cyanophenyl)-5-oxo-tetrahydrofuran-2-yl]methyl]-2-phenyl-cyclopropanecarboxamide]: the EC50 was found to be 200 nM.
